Source: patent US11912650B2, “Bakuchiol derivatives, pharmaceutically acceptable salts thereof, and preparation method and use of the same” (priority 2020, dated 2024)
In brackets after ≈: the same amount, converted by molar mass. Read-outs that look alike come from different tables or passages of the source. Where a SMILES comes first, the peptide text is derived from it. The star is where a group is joined. X1 = C=C[C@](C)(/C=C/c1ccc(OCC(=O)*)cc1)CCC=C(C)C

Legend:
[1] = system: S. aureus ATCC29213; experiment: Antibacterial activity assay (broth dilution MIC); assay type: cell-based; conditions: Staphylococcus aureus, 37° C., 24 h, compounds 38, 44-45, 58-61, 63-64 with 0.05% Tween 80
Method: (§1) Antibacterial activity assay. The antibacterial activities of all the compounds were determined according to a broth dilution method specified in Clinical and Laboratory Standards Institute (CLSI) guidelines. Bacterial cells were inoculated on a Mueller-Hinton agar (MHA) plate for overnight culture, and the concentration of the bacterial cells was adjusted to about 1×10^6 colony-forming units (CFU)/mL with phosphate buffered saline (PBS). First, a 1000 μg/mL stock solution (a final concentration of dimethyl sulfoxide (DMSO) was ≤2%) was prepared by dissolving a sample in DMSO/H2O. Then, the stock solution was diluted with Mueller-Hinton Broth (MHB) to an initial concentration of 100 μg/mL, and the sample solution (100 μL) was subjected to two-fold gradient dilution with MHB in a 96-well plate, to obtain 100 μg/mL to 0.78 μg/mL serial dilutions. Then, a bacterial suspension (100 μL) was added to each well of the 96-well plate and mixed with the test sample solution (100 μL). Among them, test systems for compounds 38, 44-45, 58-61 and 63-64 contained 0.05% of Tween 80. Finally, the 96-well plate was incubated at 37° C. for 24 hours. Absorbances at 600 nm at 0 and 24 h were measured. An minimum inhibitory concentration (MIC) value was defined as the lowest concentration where no visible bacterial growth occurred. All experiments were carried out in at least two duplicates, and biological repeatability could be achieved.

[2] = system: E. coli ATCC25922; experiment: Antibacterial activity assay (broth dilution MIC); assay type: cell-based; conditions: Escherichia coli, 37° C., 24 h, compounds 38, 44-45, 58-61, 63-64 with 0.05% Tween 80
Method: as §1

[3] = system: MRSA N315; experiment: Antibacterial activity assay (broth dilution MIC); assay type: cell-based, methicillin-resistant Staphylococcus aureus; conditions: Staphylococcus aureus, 37° C., 24 h, compounds 38, 44-45, 58-61, 63-64 with 0.05% Tween 80
Method: as §1

[4] = system: MRSA NCTC10442; experiment: Antibacterial activity assay (broth dilution MIC); assay type: cell-based, methicillin-resistant Staphylococcus aureus; conditions: Staphylococcus aureus, 37° C., 24 h, compounds 38, 44-45, 58-61, 63-64 with 0.05% Tween 80
Method: as §1

[5] = system: Gram-negative bacteria; experiment: Antibacterial activity against Gram-negative bacteria (MIC summary); assay type: cell-based; conditions: 24 h; summary of tables 1 and 2
Method: as §1

[6] = system: Gram-positive bacteria; experiment: Antibacterial activity against Gram-positive bacteria (MIC summary); assay type: cell-based; conditions: 24 h, read-out: minimum inhibitory concentration (MIC) against Gram-positive bacteria
Method: as §1

[7] = system: rabbit red blood cells; experiment: Hemolytic activity assay; assay type: cell-based
Method: Hemolytic activity assay. Rabbit red blood cells were centrifuged at 2500 rpm for 3 minutes and then washed twice with PBS. Subsequently, a 8% (v/v) cell suspension was prepared by resuspending the rabbit red blood cells with PBS. A sample was first dissolved in DMSO or PBS (a final concentration of DMSO was ≤0.5%), and then diluted with PBS to prepare two-fold gradient dilutions (400 μg/mL to 3.125 μg/mL). The rabbit red blood cell suspension ([…]) was mixed with the two-fold gradient dilutions ([…]) of the sample. Then, the mixture was added to a sterile 96-well plate, incubated at 37° C. for 1 hour, and then centrifuged at 2500 rpm for 5 minutes. Among them, test systems for compounds 38, 44-45, 58-61 and 63-64 contained 0.05% of Tween 80. The supernatant (100 μL) was transferred to a new 96-well plate. Absorbance at 576 nm was measured using a Biotek multifunctional microplate reader. The positive control group was treated with a 2% Triton X-100 solution, and the negative control group was treated with PBS or 0.5% DMSO. The hemolytic activity was calculated by the following equation: % hemolytic activity=[(Abssample−Absnegative control)/(Abspositive control−Absnegative control)]×100. All experiments were carried out in at least two duplicates, and biological repeatability could be achieved.

SMILES	MIC [1]	MIC [2]	MIC [3]	MIC [4]	MIC [5]	MIC [6]	HC50 (concentration necessary to lyse 50% rabbit red blood cells) ([7]; rabbit, 1 h)	MIC ([6]; summary of tables 1 and 2)	HC50 (concentration necessary to lyse 50% rabbit red blood cells) ([7]; rabbit red blood cells, 37° C., 1 hour)
C=C[C@](C)(/C=C/c1ccc(OCC(=O)N[C@@H](CCCNC(=N)N)C(=O)N[C@@H](CCCNC(=N)N)C(=O)OC)cc1)CCC=C(C)C [Compound 44]	0.78 µg/mL (≈ 1.22 µM)	3.12 µg/mL (≈ 4.88 µM)	0.78 µg/mL (≈ 1.22 µM)	1.56 µg/mL (≈ 2.43 µM)	1.56 to 3.12 µg/mL (≈ 2.43 to 4.88 µM)	0.39 to 3.12 µg/mL (≈ 0.609 to 4.88 µM)			
C=C[C@](C)(/C=C/c1ccc(OCC(=O)N[C@@H](CCCNC(=N)N)C(=O)N[C@@H](CCCNC(=N)N)C(=O)N[C@@H](CCCNC(=N)N)C(=O)N[C@@H](CCCNC(=N)N)C(N)=O)cc1)CCC=C(C)C [Compound 61] (X1-RRRR-NH2)	0.78 µg/mL (≈ 0.831 µM)	25 µg/mL (≈ 26.6 µM)	0.39 µg/mL (≈ 0.416 µM)	0.78 µg/mL (≈ 0.831 µM)			more than 400 μg/mL	0.39 to 3.12 µg/mL (≈ 0.416 to 3.33 µM)	
C=C[C@@](C)(/C=C/c1ccc(OCCCCN(C)CCCN(C)CCCNC)cc1)CCC=C(C)C [Compound 27]	1.56 µg/mL (≈ 3.22 µM)	1.56 µg/mL (≈ 3.22 µM)	0.78 µg/mL (≈ 1.61 µM)	1.56 µg/mL (≈ 3.22 µM)	1.56 to 3.12 µg/mL (≈ 3.22 to 6.46 µM)			0.39 to 3.12 µg/mL (≈ 0.806 to 6.46 µM)	
C=C[C@@](C)(/C=C/c1ccc(OCCCCN(CCCN(C)C)CCCN(C)C)cc1)CCC=C(C)C [Compound 28]	1.56 µg/mL (≈ 3.13 µM)	3.12 µg/mL (≈ 6.28 µM)	1.56 µg/mL (≈ 3.13 µM)	1.56 µg/mL (≈ 3.13 µM)	1.56 to 3.12 µg/mL (≈ 3.13 to 6.28 µM)			0.39 to 3.12 µg/mL (≈ 0.783 to 6.28 µM)	112.9 ± 5.0 µg/mL
C=C[C@@](C)(/C=C/c1ccc(OCCCCN(C)CCCNC)cc1)CCC=C(C)C [Compound 24]	1.56 µg/mL (≈ 3.78 µM)	1.56 µg/mL (≈ 3.78 µM)	0.78 µg/mL (≈ 1.89 µM)	1.56 µg/mL (≈ 3.78 µM)	1.56 to 3.12 µg/mL (≈ 3.78 to 7.57 µM)			0.39 to 3.12 µg/mL (≈ 0.945 to 7.57 µM)	
C=C[C@](C)(/C=C/c1ccc(OCCCCNCCN(CCN)CCN)cc1)CCC=C(C)C [Compound 29]	0.78 µg/mL (≈ 1.71 µM)	3.12 µg/mL (≈ 6.84 µM)	0.78 µg/mL (≈ 1.71 µM)	0.78 µg/mL (≈ 1.71 µM)	1.56 to 3.12 µg/mL (≈ 3.42 to 6.84 µM)			0.39 to 3.12 µg/mL (≈ 0.854 to 6.84 µM)	
C=C[C@](C)(/C=C/c1ccc(OCC(=O)N[C@@H](CCCNC(=N)N)C(=O)N[C@@H](CCCNC(=N)N)C(=O)N[C@@H](CCCNC(=N)N)C(=O)N[C@@H](CCCNC(=N)N)C(=O)N[C@@H](CCCNC(=N)N)C(=O)N[C@@H](CCCNC(=N)N)C(=O)OC)cc1)CCC=C(C)C [Compound 64]	1.56 µg/mL (≈ 1.23 µM)	25 µg/mL (≈ 19.8 µM)	1.56 µg/mL (≈ 1.23 µM)	1.56 µg/mL (≈ 1.23 µM)			more than 400 μg/mL	0.39 to 3.12 µg/mL (≈ 0.308 to 2.47 µM)	
C=C[C@@](C)(/C=C/c1ccc(OCCCCNCC)cc1)CCC=C(C)C [Compound 14]	1.56 µg/mL (≈ 4.39 µM)	12.5 µg/mL (≈ 35.2 µM)	0.78 µg/mL (≈ 2.19 µM)	1.56 µg/mL (≈ 4.39 µM)				0.39 to 3.12 µg/mL (≈ 1.1 to 8.79 µM)	
C=C[C@@](C)(/C=C/c1ccc(OCCCCNCCCC)cc1)CCC=C(C)C [Compound 15]	1.56 µg/mL (≈ 4.07 µM)	12.5 µg/mL (≈ 32.6 µM)	1.56 µg/mL (≈ 4.07 µM)	1.56 µg/mL (≈ 4.07 µM)				0.39 to 3.12 µg/mL (≈ 1.02 to 8.15 µM)	
C=C[C@](C)(/C=C/c1ccc(OCC(=O)N[C@@H](CCCNC(=N)N)C(=O)N[C@@H](CCCNC(=N)N)C(=O)N[C@@H](CCCNC(=N)N)C(=O)OC)cc1)CCC=C(C)C [Compound 45]	0.39 µg/mL (≈ 0.489 µM)	6.25 µg/mL (≈ 7.84 µM)	0.78 µg/mL (≈ 0.979 µM)	1.56 µg/mL (≈ 1.96 µM)		0.39 to 3.12 µg/mL (≈ 0.489 to 3.92 µM)			
C=C[C@@](C)(/C=C/c1ccc(OCCCCN2CCN(CCCN(C)C)CC2)cc1)CCC=C(C)C [Compound 23]	1.56 µg/mL (≈ 3.24 µM)	3.12 µg/mL (≈ 6.49 µM)	0.78 µg/mL (≈ 1.62 µM)	3.12 µg/mL (≈ 6.49 µM)	1.56 to 3.12 µg/mL (≈ 3.24 to 6.49 µM)			0.39 to 3.12 µg/mL (≈ 0.81 to 6.49 µM)	
